The source of these data is ChEMBL document CHEMBL1126410, “Synthesis and activity in cognition-related tests of novel 2-benzoylamino-4-oxoquinazolines” (1992).

Activity calls are given as the source filed them. No cut-off for these calls is given here.

The test system of assay [1] is Mus musculus. Description: The compound was evaluated for hypoxic survival activity in mice after intraperitoneal administration at 100 mg/kg dose; 50-95. Particulars: ip. It counts as functional.
In assay [2] the test system is Mus musculus. Briefly: The compound was evaluated for hypoxic survival activity in mice after intraperitoneal administration at 10 mg/kg dose; 50-75. It counts as functional. The conditions noted are these: ip.
Assay [3] relates to Mus musculus. Briefly: The compound was evaluated for hypoxic survival activity in mice after intraperitoneal administration at 10-100 mg/kg dose; Inactive. In kind it is functional, organism-based.
The test system of assay [4] is Mus musculus. Description: The compound was evaluated for hypoxic survival activity in mice after intraperitoneal administration at 100 mg/kg dose; 50-90. The conditions noted are these: ip. In kind it is functional.
Assay [5] concerns Mus musculus. Description: Evaluated for improvement of anoxic amnesia in mice after ip administration of 50 mg/kg dose. In kind it is functional. The conditions noted are these: route intraperitoneal.
For assay [6], the system named is Mus musculus. Briefly: The compound was evaluated for hypoxic survival activity in mice after intraperitoneal administration at 50 mg/kg dose; 80-90. Particulars: ip. It counts as functional.
The subject of assay [7] is Mus musculus. Description: Evaluated for improvement of anoxic amnesia in mice after ip administration of 100 mg/kg dose. It counts as functional. The conditions noted are these: route intraperitoneal.
In assay [8] the test system is Mus musculus. Briefly: Evaluated for improvement of anoxic amnesia in mice after ip administration of 10 mg/kg dose(218 delay seconds); -19-248. In kind it is functional. Particulars: route intraperitoneal.
The subject of assay [9] is Mus musculus. Briefly: Evaluated for improvement of anoxic amnesia in mice after ip administration of 25 mg/kg dose(341 delay seconds); 79-131. It counts as functional. The conditions noted are these: route intraperitoneal.
The subject of assay [10] is Mus musculus. Briefly: The compound was evaluated for hypoxic survival activity in mice after intraperitoneal administration at 100 mg/kg dose; 75-80. In kind it is functional. Particulars: ip.
Assay [11] concerns Rattus norvegicus. Description: Evaluated for improvement of anoxic amnesia in aged rat after ip administration of 10 mg/kg dose(529 delay seconds). It counts as functional. Particulars: route intraperitoneal.
In assay [12] the test system is Rattus norvegicus. Description: Evaluated for improvement of anoxic amnesia in aged rat after ip administration of 25 mg/kg (300 delay seconds). Particulars: route intraperitoneal. It counts as functional.
The subject of assay [13] is Mus musculus. Briefly: The compound was evaluated for hypoxic survival activity in mice after intraperitoneal administration at 100 mg/kg dose; 55-55. The conditions noted are these: ip. In kind it is functional.
Assay [14] relates to Mus musculus. Briefly: The compound was evaluated for hypoxic survival activity in mice after intraperitoneal administration at 100 mg/kg dose; 45-65. In kind it is functional. Particulars: ip.
In assay [15] the test system is Mus musculus. Briefly: The compound was evaluated for hypoxic survival activity in mice after intraperitoneal administration at 100 mg/kg dose; 65-80. It counts as functional. Particulars: ip.
Assay [16] deals with Mus musculus. Briefly: The compound was evaluated for hypoxic survival activity in mice after intraperitoneal administration at 100 mg/kg dose. It counts as functional. The conditions noted are these: ip.
Assay [17] relates to Mus musculus. Briefly: The compound was evaluated for hypoxic survival activity in mice after intraperitoneal administration at 100 mg/kg dose; 80-85. The conditions noted are these: ip. It counts as functional.
The test system of assay [18] is Mus musculus. Description: The compound was evaluated for hypoxic survival activity in mice after intraperitoneal administration at 10 mg/kg dose; 30-80. In kind it is functional. Particulars: ip.
Assay [19] deals with Mus musculus. Briefly: The compound was evaluated for hypoxic survival activity in mice after intraperitoneal administration at 0.125 mg/kg dose; 60-80. It counts as functional. Particulars: ip.

In the case of `Cn1c(NC(=O)c2ccccc2)nc(=O)c2ccccc21`, the survival at 100 mg/kg with Mus musculus [1] came out at 70%.
`COc1ccc(C(=O)Nc2nc(O)c3ccccc3n2)cc1` showed a survival at 10 mg/kg in the assay on Mus musculus [2] of 63%.
`Cc1ccc(C(=O)Nc2nc(O)c3ccccc3n2)cc1` displayed a survival at 10 mg/kg with Mus musculus [2] of 63%.
For `Cc1cccc(C(=O)Nc2nc(=O)c3ccccc3n2C)c1`, the Survival entry with Mus musculus [3] was “inactive”.
The molecule `COc1cc2nc(NC(=O)c3ccccc3)nc(O)c2cc1OC` yielded a survival at 100 mg/kg in the assay with Mus musculus [4] of 70%.
`Cc1ccc(C(=O)Nc2nc3ccccc3c(=O)n2C)cc1` registered an Improvement in the assay with Mus musculus [5] of 116%. Besides, in the assay on Mus musculus [6], the survival at 50 mg/kg was determined as 85%.
For `Cn1c(NC(=O)c2ccccc2)nc2ccccc2c1=O`, the Improvement is listed as 78% in the assay on Mus musculus [7]; 94% in the assay on Mus musculus [8]; 105% in the assay with Mus musculus [9]; 1369% with Rattus norvegicus [11]; 733% in the assay on Rattus norvegicus [12]. This molecule also yielded a survival at 100 mg/kg in the assay with Mus musculus [10] of 78%.
For the molecule `Cc1ccc2nc(NC(=O)c3ccccc3)nc(O)c2c1`, in the assay on Mus musculus [13], the survival at 100 mg/kg was 55%.
Consider `Cc1ccc(C(=O)Nc2nc(=O)c3ccccc3n2C)cc1`, for which the Improvement with Mus musculus [5] amounted to 224%. In the assay on Mus musculus [14], this molecule returned a survival at 100 mg/kg of 55%.
`O=C(Nc1nc(O)c2ccccc2n1)c1ccccc1` came in with an Improvement with Mus musculus [5] of 130%. This molecule came in with a survival at 100 mg/kg in the assay on Mus musculus [15] of 73%.
Molecule `CC(C)n1c(NC(=O)c2ccccc2)nc2ccccc2c1=O` displayed a survival at 100 mg/kg in the assay with Mus musculus [16] of 55%.
Regarding `Cc1cccc(C(=O)Nc2nc(O)c3ccccc3n2)c1`, in the assay with Mus musculus [17], the survival at 100 mg/kg was determined as 83%.
In turn, `O=C(Nc1nc(O)c2ccccc2n1)c1ccc(Cl)cc1` displayed a survival at 10 mg/kg in the assay with Mus musculus [18] of 55%.
For the molecule `CNC(=O)Oc1ccc2c(c1)[C@]1(C)CCN(C)[C@@H]1N2C` [PHYSOSTIGMINE], in the assay on Mus musculus [19], the survival at 0.125 mg/kg was 60%.
